pEC50: −log10 of the molar value.
Experiments:
[1] = Maximum reaction speed by Photo Differential Scanning Calorimetry (Photo-DSC); conditions: yne monomer with TMPMP and 5 wt.-% photoinitiator mixture (comparatives without thiol); 1 W/cm^2, 50° C., nitrogen
Protocol: The maximum reaction speed of various monomers was evaluated by means of Photo Differential Scanning Calorimetry (Photo-DSC). 8 mg of the respective test mixtures consisting of yne monomer (as shown in the following table 1) and thiol monomer (trimethylpropane tri(3-mercaptopropionate), TMPMP) as well as 5 wt.-% of a photoinitiator mixture (2-hydroxy-2-methyl-1-phenyl propanone/diphenyl 2,4,6-trimethylbenzoyl phosphane oxide, 50 wt.-%/50 wt.-%) were provided. As comparative test mixtures, acrylate and methacrylate without thiol monomer, but together with 5 wt.-% of the same photoinitiator mixture were provided. The test mixtures were placed in a crucible of aluminium and irradiated with an Omnicure® lamp at an intensity of 1 W/cm^2 at 50° C. under a nitrogen gas atmosphere to thereby cure the test mixtures.
The times (tmax) for reaching the maximum reaction enthalpy indicate the reactivity of the photo-reactive systems. FIG. 1 is a graphical illustration of the test results (tmax) further showing the chemical structural formulas of the tested alkyne monomers and comparative (meth)acryl monomers.

[2] = Measurement of viscosity (cone-and-plate viscosimeter); assay type: physicochemical; conditions: for Viscosity at 25° C.: constant shear rate 300 s^-1, 25° C.; for Viscosity, in words: 25° C.
Protocol: For measuring the viscosity, an MC 200 cone-and-plate viscosimeter from Anton Paar GmbH (cone unit MK 22/50 mm, 10) was used. First, the shear rate was varied with a stepped slope and subsequently the viscosity was determined at a constant shear rate (300 s^−1) every 30 seconds. The measurement was carried out at 25° C.

[3] = system: L929 mice fibroblast cells; assay: Cytotoxicity (residual protein content of the cells); assay type: cell-based; conditions: for Cytotoxicity, in words: L929 cells; for Concentration limit: toxicological concentration limit: reduction of protein content of L929 cells by more than 30% relative to negative control; for Concentration limit / pEC50: incubation 48 h; for pEC50: concentration at which 50% of the L929 cells are damaged
Protocol: The cytotoxicity of various monomers was determined by a certified laboratory by means of L929 mice fibroblast cells. As a (toxic) positive control, Triton X 100 was added to L929 cells with a final concentration of 1% (v/v). As a (non-toxic) negative control, a cell culture medium was used.
After completion of the incubation, the residual protein content of the cells was determined. A reduction of the protein content from L929 cells by more than 30%, relative to the negative control, was evaluated as cytotoxic (which corresponds to the toxicological concentration limit). From this, the half maximal effective concentration (EC50), at which 50% of the cells are damaged, can be calculated.

## 1,4-butanediol dibut-1-ynyl carbonate
[1]
  tmax (time for reaching the maximum reaction enthalpy): 2.46 s

## C=CC(=O)OCCCCOC(=O)C=C [1,4-butanediol diacrylate, reference compound]
[1]
  tmax (time for reaching the maximum reaction enthalpy): 1.80 s
[2]
  Viscosity at 25° C.: 4.3 mPa*s
[3]
  Cytotoxicity, in words: particularly cytotoxic
  Concentration limit: <160 µM

## C=C(C)C(=O)OCCCCOC(=O)C(=C)C [1,4-butanediol dimethacrylate, reference compound]
[1]
  tmax (time for reaching the maximum reaction enthalpy): 6.72 s
[2]
  Viscosity at 25° C.: 4.6 mPa*s
[3]
  Cytotoxicity, in words: particularly cytotoxic
  Concentration limit: <160 µM

## C#CCOC(=O)OCC(CC)(COC(=O)OCC#C)COC(=O)OCC#C [Trimethylolpropane tripropargyl carbonate]
[1]
  tmax (time for reaching the maximum reaction enthalpy): 1.92 s

## 1,4-butanediol dipropargyl carbonate
[1]
  tmax (time for reaching the maximum reaction enthalpy): 3.00 s
[3]
  pEC50: 3.26

## CCC#COCCCCOC#CCC [1,4-butanediol dibut-1-ynyl ether]
[1]
  tmax (time for reaching the maximum reaction enthalpy): 2.22 s
[2]
  Viscosity, in words: relatively low values
  Viscosity at 25° C.: 6.1 mPa*s
[3]
  Cytotoxicity, in words: excellently low cytotoxicity
  Concentration limit: >1100 µM
[3]; Mus musculus
  pEC50: 2.70

## C#CCOCCCCOCC#C [1,4-butanediol dipropargyl ether]
[1]
  tmax (time for reaching the maximum reaction enthalpy): 5.12 s
[2]
  Viscosity, in words: relatively low values
  Viscosity at 25° C.: 4.7 mPa*s
[3]
  Cytotoxicity, in words: excellently low cytotoxicity
  Concentration limit: >1600 µM
[3]; Mus musculus
  pEC50: 2.52

## CCC#COCCOC(COCC)OC#CCC (centres unmarked) [1,4-triethyleneglycol dibut-1-ynyl ether]
[1]
  tmax (time for reaching the maximum reaction enthalpy): 2.46 s
[2]
  Viscosity at 25° C.: 17.2 mPa*s

From patent publication US20170051112A1, “RESIN COMPOSITION SUITABLE FOR PRINTING AND PRINTING METHOD UTILIZING THE SAME” (MONTANUNIVERSITÄT LEOBEN, priority 2014, published 2017)
